Paper PMC9088798, “An Approach to Derive Functional Peptide Inhibitors of Transcription Factor Activity” (JACS Au, 2022)

Assays:
[1] = CD spectroscopy of single components (helicity); type: physicochemical; details: 20 °C, 10 μM, 150 mM potassium phosphate, 150 mM KF, 5 mM TCEP, pH 7.4
Description: Figure 5 TBS winner peptide HingeW binds cJun preferentially over A-FosW. CD spectra (20 °C) show the binding of cJun to either (A) HingeW or (B) A-FosW. […] However, the effect is larger for HingeW, indicating a greater increase in peptide helicity. Similarly, the thermal denaturation of cJun bound to either (C) HingeW or (D) A-FosW is right-shifted from the average of the component peptide denaturation profiles. […] CD dimer exchange spectra show (E) an increase in helicity when HingeW is mixed with the A-FosW/cJun heterodimer as the HingeW exchanges with the A-FosW due to the binding preference of cJun for HingeW and (F) no shift from the average is observed when A-FosW is mixed with the HingeW/cJun heterodimer, indicating no change in dimer populations. Arrows are shown to highlight the shift from the average at 190 and 222 nm. In all experiments, the total sample peptide concentration was fixed to 10 μM, using equimolar concentrations of each component peptide to remove concentration-dependent effects. […]
(§1) µM) alongside ampicillin, kanamycin and chloramphenicol to maintain the required plasmids, and IPTG (1 mM) to induce protein expression. The library transformants were […]
increased to the optimum 4 µM in subsequent passages. […] This allows the occurrence of library members to be monitored as winner sequences are selected for. […]

[2] = system: cJun bZIP / TRE sites in TRE-mDHFR gene; assay: Transcription block survival (TBS) colony counting in E. coli; type: cell-based, human cJun, expressed in E. coli
Description: Figure 3 Transcription block survival (TBS) assay to derive functionally active cJun inhibitors. (A) Schematic illustrating the design and operation of TBS. (B) Controlled numbers of E. coli expressing the indicated proteins were plated on selective media and growth rates were calculated by counting colony-forming units. […] (2) A small effect on colony numbers is observed when cJun bZIP is additionally expressed. (3) TRE-mDHFR can replace the inhibited ecDHFR with colony count lower than for WT as expected. […] Although (6) cFos LZ and (7) FosW are known cJun-binders, they are unable to effectively dissociate the cJun bZIP from TRE DNA. However, (8) A-FosW and the TBS-derived hit (9) HingeW remove TRE-mDHFR transcriptional blocks to restore cell survival. Bar charts represent averages of three experimental repeats. Errors are shown as one standard deviation. Selected P values from a t-test are indicated (*P ≤ 0.05; **P ≤ 0.01; ****P ≤ 0.0001) with values for all possible comparisons within the bar chart reported in Figure S7. Serial dilutions were used to quantify colony numbers where required. Also shown are representative plate images and schematics to illustrate the effect upon TRE-mDHFR transcription. […]
Library Construction and TBS Assay: Library inserts were produced using PCR fill-in reactions from synthesised primers (Sigma) with degenerate codons at the desired positions to produce the correct residue options. The library was subcloned using SacI and AscI sites into the pET24a plasmid containing A-FosW. The primers used were cJun- […]
-3’ and cJun-Hinge-Lib_R: 5’-
-3’. The library DNA was transformed into NEB 10-beta electrocompetent E. coli cells. The following equation was utilised to determine library […]
coverage by the number of single colonies: where E is the percentage […] of the library missing, m is the number of colonies collected and n is the library size. This […]
covered. Library DNA quality was assessed by sequencing both the DNA pool and a number of single colonies to show degenerate codons in the correct positions in the pool and to show a diversity of library members from single colonies. The pool of library DNA was transformed into BL21 Gold cells already containing pES300d-TRE-mDHFR and […]
as §1
however a lower stringency is used initially before selection is increased in later steps.
Colonies from this first round of selection were pooled and serially grown in liquid culture at starting OD600 of 0.05 and grown at 37°C with shaking at 200 rpm until the OD600 […]
increased to the optimum 4 µM in subsequent passages. Bacteria containing the most effective functional antagonists were expected to produce higher levels of TRE-mDHFR which provides a growth advantage, and these will dominate the culture. At each passage step, a sample of the culture was plated on LB agar (supplemented with antibiotics to maintain plasmids) to select and sequence individual colonies, and a DNA pool was also sequenced. This allows the occurrence of library members to be monitored as winner sequences are selected for. Assay Validation experiments utilised a modified assay methodology whereby overnight cultures from glycerol stocks of the Control Strains (Figure S6) were diluted to OD600=0.5 and 50 µL was plated on a selective M9 minimal […]

LEQRAEELARENEELEKEAEELEQELDELQAEIEQLEERNYALRKEIEDLQKQLEKL [A-FosW, N-terminal AS and C-terminal GAP caps, 6xHis-tagged]
Fraction helicity of single component [1]: 40.1% | colony numbers restored relative to TRE-mDHFR only ([2]; TRE-mDHFR + cJun bZIP + peptide, M9 + 4 μM TMP + 1 mM IPTG, average of three experimental repeats): 60%

cJun bZIP: human cJun bZIP domain, Arg252 to Leu308 (target protein)
Fraction helicity of single component [1]: 14.0% | reduction in colony counts on expression of cJun bZIP with TRE-mDHFR ([2]; M9 minimal media + 4 μM TMP + 1 mM IPTG, TRE-mDHFR + cJun bZIP, P ≤ 0.0001, average of three experimental repeats): 21 fold | reduction in colony counts on expression of cJun bZIP without TRE sites (WT-mDHFR) ([2]; M9 minimal media + 4 μM TMP + 1 mM IPTG, WT-mDHFR + cJun bZIP vs WT-mDHFR, P ≤ 0.05, three experimental repeats): 1.3 fold
